Two compounds from ChEMBL document CHEMBL1201862, “PubChem BioAssay data set” (2004) can be followed below.

Test systems include HCC 2998; MDA-MB-435; HL-60; PC-3; Malme-3M; NCI-H23; HCT-116; CAKI-1; SF-268; DU-145; HOP-62; SK-MEL-28; NCI-H522; OVCAR-8; MDA-N; SNB-75; UACC-257; SR; SF-295; RXF 393.
Common to all, as to test: growth of human tumour cells (NCI), 48 h

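Tested at 5 concentrations; 48 h exposure; 96-well plates; endpoints linearly interpolated, else capped at highest concentration. At the GI50, growth is halved.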 Calls of active or inactive are those of the source. Cut-off read from the data, not from the text of the source: active = GI50 up to about 1.1 µM and inactive = higher. Where only a bound is given, the exact number is not on record here.

Regarding `COc1cc2ncnc(Nc3cccc(Cl)c3)c2cc1OC` [TYRPHOSTIN AG-1478], the GI50 in the test with HCC 2998 is 13.6 µM (inactive); in the test with MDA-MB-435, 11.9 µM (inactive); with HL-60 it was 21.8 µM (inactive); in the test on PC-3, 12.6 µM (inactive); in the test on Malme-3M, 6.28 µM (inactive); with NCI-H23, 14.6 µM (inactive). For the same compound, the GI50 is 17.6 µM (inactive) with HCT-116; 0.248 µM (active) with CAKI-1; 4.67 µM (inactive) in the test on SF-268; 1.89 µM (inactive) in the test with DU-145; 20.8 µM (inactive) in the test on HOP-62; 9.38 µM (inactive) in the test with SK-MEL-28. For the same compound, the GI50 with NCI-H522 was 0.356 µM (active); in the test with OVCAR-8, 3.66 µM (inactive); in the test on MDA-N, 15.1 µM (inactive); in the test with SNB-75, 2.57 µM (inactive); with UACC-257, 7.57 µM (inactive); in the test on SR it was 7.33 µM (inactive). In addition, the GI50 is 9.48 µM (inactive) with SF-295 and 9.42 µM (inactive) in the test on RXF 393.

`Cn1c(=O)oc2cc(C(O)CN3CCN(Cc4ccccn4)CC3)c(Cl)cc21` (stereo not given): the GI50 with HCC 2998, with MDA-MB-435, with HL-60, in the test on PC-3, in the test with Malme-3M and in the test on NCI-H23 was > 100 µM (inactive) in each case. For the same compound, the GI50 with HCT-116, in the test with CAKI-1, in the test with SF-268, in the test with DU-145, in the test on HOP-62 and with SK-MEL-28 was > 100 µM (inactive) each time. Besides, the GI50 in the test on NCI-H522 was > 100 µM (inactive); in the test on OVCAR-8, > 100 µM (inactive); in the test with MDA-N, > 100 µM (inactive); in the test with SNB-75, 77.3 µM (inactive); in the test on UACC-257, > 100 µM (inactive); in the test with SR it was 23.3 µM (inactive). In addition, the GI50 in the test with SF-295 and in the test on RXF 393 was > 100 µM (inactive) throughout.
